Data from patent EP4722219A1 (Gan & Lee Pharmaceuticals Co., Ltd., priority 2023, dated 2024).

Assays:
Type in all cases: cell-based
ERα [1] = molecular target: T1, ERα (Homo sapiens, UniProt P03372); test: ERα degradation in MCF-7 cells (Western blot); parameters: host or cells: MCF-7; conditions: 4 hours
T1 sequence (P03372 1-595): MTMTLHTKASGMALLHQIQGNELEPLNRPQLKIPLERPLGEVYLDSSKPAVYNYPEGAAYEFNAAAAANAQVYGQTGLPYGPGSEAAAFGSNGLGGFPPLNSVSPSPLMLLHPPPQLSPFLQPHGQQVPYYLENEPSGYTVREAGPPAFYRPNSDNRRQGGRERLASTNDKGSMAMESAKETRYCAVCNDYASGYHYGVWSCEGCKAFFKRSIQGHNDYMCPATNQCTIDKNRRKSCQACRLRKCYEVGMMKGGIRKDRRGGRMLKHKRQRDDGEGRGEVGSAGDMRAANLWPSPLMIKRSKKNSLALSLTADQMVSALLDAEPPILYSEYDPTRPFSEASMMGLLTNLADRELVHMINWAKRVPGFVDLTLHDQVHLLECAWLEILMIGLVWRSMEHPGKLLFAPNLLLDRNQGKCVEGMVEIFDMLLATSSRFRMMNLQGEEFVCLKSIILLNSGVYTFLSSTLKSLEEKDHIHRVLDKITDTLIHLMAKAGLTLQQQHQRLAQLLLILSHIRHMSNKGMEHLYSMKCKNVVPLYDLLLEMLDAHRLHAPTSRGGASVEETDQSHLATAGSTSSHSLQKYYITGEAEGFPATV
Method: Test Example 4 Effect of PROTAC Compounds Disclosed in the Present Invention on ERα Degradation in MCF-7 Cells
MCF-7 (ATCC) cells were cultured in DMEM medium (11995-065, Gibco) containing 10% FBS (10099141C, Gibco) at 37°C and 5% CO2 until they entered the logarithmic growth phase. MCF-7 cells were plated at a density of 3×10^5 cells/well in a 6-well plate and incubated at 37°C, 5% CO2 for 24 hours. After cell attachment, 1µL of compound in dimethyl sulfoxide (final concentration 0.15-1000nM) was added and incubated for another 4 hours at 37°C, 5% CO2 incubator. After 4 hours, the culture medium was discarded, and each well was washed once with 1 mL of pre-chilled 1× DPBS. The cells were then lysed with 50 µL of RIPA lysis buffer (P0013B, Beyotime) and 1× protease inhibitor cocktail (P1005, Beyotime). After incubation on ice for 20 minutes, the cells were centrifuged at 14,000 g at 4°C for 30 minutes. The supernatant was carefully collected and analyzed for ERα protein levels by immunoblotting.
(§1) Western blotting: The total protein concentration in the collected cell lysate supernatant was determined using the BCA protein concentration assay kit (enhanced) (P0009, Beyotime). Based on the total protein concentration determined by BCA, the protein concentration was adjusted to 1 µg/µL using RIPA lysis buffer and 5× SDS-PAGE protein loading buffer (MB01015, GenScript). The protein was denatured in a 95°C water bath for 5 minutes. After denaturation, the condensed water on the tube wall was collected by centrifugation and used as the loading sample. 20µL of the loading sample (20 µg of total protein) was added to the sample well of a 12% precast gel (M00669, GenScript). Electrophoresis was performed at 100 V for 20 minutes, followed by switching to 150 V for 40 minutes. After electrophoresis, the proteins from the SDS-PAGE gel were transferred to a PVDF membrane at a constant voltage of 100 V for 60 minutes. After transfer, the PVDF membrane corresponding to the ERα protein and internal reference protein was cut and incubated in 1× QµickBlock blocking buffer (P0252, Beyotime) for 30 minutes at room temperature on a shaker. After blocking, the ERα primary antibody (1:1000, 8644S, CST) was added and incubated overnight at 4°C on a shaker. The PVDF membrane was washed three times with 1× TBST buffer for 5 minutes each. Rabbit IgG (H+L) secondary antibody (1:7500, SA5-35571, Invitrogen) was added and incubated for 1 hour at room temperature on a shaker. The membrane was then washed again three times with 1× TBST buffer for 5 minutes each. Finally, the membrane was imaged using a dual-color infrared laser imaging system (Odyssey DLx, LICOR). Protein maps were analyzed for grayscale value using Image Studio Lite software. The grayscale correction value for each sample was calculated using the formula: grayscale correction value = grayscale value of the target protein / grayscale value of the corresponding internal reference. Then the grayscale correction values of the compound group and the control group were compared to calculate the degradation rate of the compound. Table 4 Degradation rate of ERα by PROTAC compounds of the present invention and positive control in MCF-7 cells (%)

T-47D cells = test: Inhibition of cell proliferation in T-47D cells (CCK-8); conditions: Homo sapiens, T47D, 144 h, 6 days treatment, CCK-8 cell viability
Method in brief: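 T-47D cells (3,000/well) in RPMI-1640 with 10% FBS were exposed to a concentration range of PROTAC compounds for 6 days at 37 °C, 5% CO2. Viability read by CCK-8; IC50 fitted from inhibition rate.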

MCF-7 cells = test: Inhibition of cell proliferation in MCF-7 cells (CCK-8); conditions: MCF-7 cell proliferation, 6 days treatment
Method in brief: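 MCF-7 cells, 800 per well in DMEM plus 10% FBS, exposed to graded PROTAC concentrations for 6 days at 37 °C, 5% CO2. Viability by CCK-8; IC50 fitted from inhibition rates.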

ERα [2] = molecular target: T1, ERα; test: ERα degradation in T-47D cells (Western blot); conditions: 4 hours
Method: as §1
Test Example 5 Degradation of ERα by the PROTAC compounds disclosed in the present invention in T-47D cells
T-47D (ATCC) cells were cultured in PRMI-1640 medium (30-2001, ATCC) containing 10% FBS (10099141C, Gibco) at 37°C and 5% CO2 until they entered the logarithmic growth phase. T-47D cells were seeded at a density of 3×10^5 cells/well in a 6-well plate and incubated at 37°C, 5% CO2 for 24 hours. After cell attachment, 1 µL of compound dimethyl sulfoxide solution (final concentration 0.15-1000 nM) was added and incubated for another 4 hours at 37°C, 5% CO2 incubator. After 4 hours, the culture medium was discarded, and each well was washed once with 1 mL of pre-chilled 1× DPBS. The cells were then lysed with 50 µL of RIPA lysis buffer (P0013B, Beyotime) and 1× protease inhibitor cocktail (P1005, Beyotime). After incubation on ice for 20 minutes, the cells were centrifuged at 14,000 g at 4°C for 30 minutes. The supernatant was carefully collected and analyzed for ERα protein levels by immunoblotting. Table 5 Degradation rate of ERα by PROTAC compounds of the present invention and positive control sample in T-47D cells (%)

| SMILES | Degradation rate of ERα in MCF-7 cells (%) (ERα [1]; 1nM) | Degradation rate of ERα in MCF-7 cells (%) (ERα [1]; 10nM) | IC50 (T-47D cells) [nM] | IC50 (MCF-7 cells) [nM] | Degradation rate of ERα in T-47D cells (%) (ERα [2]; 1nM) | Degradation rate of ERα in T-47D cells (%) (ERα [2]; 10nM) | IC50 (MCF-7 cells; Homo sapiens, MCF7, 144 h) [nM] |
| --- | --- | --- | --- | --- | --- | --- | --- |
| O=C1CCC(Nc2ccc3c(c2)COC[C@H]2CN(CC4CCC(OC5CCN(c6ccc([C@@H]7c8ccc(O)cc8CC[C@@H]7c7ccccc7)cc6)CC5)CC4)CCN32)C(=O)N1 (single isomer, unassigned) [ER-P-50] | 1 | 9 | 45.6 | 3270 | 4 | 18 | – |
| Cn1c(=O)n(C2CCC(=O)NC2=O)c2ccc3c(c21)C1(CCN(C[C@H]2CC[C@@H](OC4CCN(c5ccc([C@@H]6c7ccc(O)cc7CC[C@@H]6c6ccccc6)cc5)CC4)CC2)CC1)CO3 (stereo partly drawn) [ER-P-66, 3-(1'-(((1S,4s)-4-((1-(4-((1R,2S)-6-hydroxy-2-phenyl-1,2,3,4-tetrahydronaphthalen-1-yl)phenyl)piperidin-4-yl)oxy)cyclohexyl)methyl)-1-methyl-2-oxo-1,2-dihydro-3H,7H-spiro[benzofuro[4,5-d]imidazole-8,4'-piperidin]-3-yl)piperidine-2,6-dione] | 6 | 30 | 14 | – | 18 | 49 | 4100 |
| Cn1c(=O)n(C2CCC(=O)NC2=O)c2cc3c(cc21)C1(CCN(C(=O)C2CN(CC4CCN(c5ccc([C@@H]6c7ccc(O)cc7CC[C@@H]6c6ccccc6)cc5)CC4)C2)CC1)CO3 (stereo partly drawn) [ER-P-26] | 43 | 40 | 0.51 | – | 58 | 70 | 125 |
| O=C1CC[C@H](NC(=O)c2ccc3c(c2)OCC[C@H]2CN(CC4CCC(OC5CCN(c6ccc([C@@H]7c8ccc(O)cc8CC[C@@H]7c7ccccc7)cc6)CC5)CC4)CCN32)C(=O)N1 (stereo partly drawn) [ER-P-44, (S)-N-((S)-2,6-dioxopiperidin-3-yl)-3-((4-((1-(4-((1R,2S)-6-hydroxy-2-phenyl-1,2,3,4-tetrahydronaphthalen-1-yl)phenyl)piperidin-4-yl)oxy)cyclohexyl)methyl)-2,3,4,4a,5,6-hexahydro-1H-benzo[b]pyrazino[1,2-d][1,4]oxazepine-9-carboxamide] | 10 | 39 | 1.26 | 805 | -29 | 30 | – |
| O=C1CCC(N2Cc3c(ccc4c3OCC43CCC4(CCN(C5CC6(CCN(c7ccc([C@@H]8c9ccc(O)cc9CC[C@@H]8c8ccccc8)cc7)CC6)C5)CC4)CC3)C2=O)C(=O)N1 (stereo partly drawn) [ER-P-3] | 25 | 69 | 3.02 | – | 28 | 73 | < 0.256 |
| Cn1c(=O)n(C2CCC(=O)NC2=O)c2ccc3c(c21)OCC31CCN(C(=O)C2CN(CC3CCN(c4ccc([C@@H]5c6ccc(O)cc6CC[C@@H]5c5ccccc5)cc4)CC3)C2)CC1 (stereo partly drawn) [ER-P-25, 3-(1'-(1-((1-(4-((1R,2S)-6-hydroxy-2-phenyl-1,2,3,4-tetrahydronaphthalen-1-yl)phenyl)piperidin-4-yl)methyl)azetidine-3-carbonyl)-1-methyl-2-oxo-1,2-dihydro-3H,7H-spiro[benzofuro[6,7-d]imidazole-6,4'-piperidin]-3-yl)piperidine-2,6-dione] | 49 | 53 | 0.84 | – | 77 | 71 | 1.26 |
| O=C1CC[C@H](NC(=O)c2ccc3c(c2F)OCC32CCN(C3CC4(CCN(c5ccc([C@@H]6c7ccc(O)cc7CC[C@@H]6c6ccccc6)cc5)CC4)C3)CC2)C(=O)N1 [ER-P-37, N-((S)-2,6-dioxopiperidin-3-yl)-7-fluoro-1'-(7-(4-((1R,2S)-6-hydroxy-2-phenyl-1,2,3,4-tetrahydronaphthalen-1-yl)phenyl)-7-azaspiro[3.5]nonan-2-yl)-2H-spiro[benzofuran-3,4'-piperidine]-6-carboxamide] | -6 | -9 | 18.9 | – | 6 | 4 | 1400 |
| O=C1CCC(N2Cc3c(ccc4c3OCC43CCC4(CCN(C5CCN(C(=O)C6CCN(c7ccc([C@@H]8c9ccc(O)cc9CC[C@@H]8c8ccccc8)cc7)CC6)CC5)CC4)CC3)C2=O)C(=O)N1 (stereo partly drawn) [ER-P-5] | 25 | 57 | 0.96 | – | 39 | 79 | < 0.256 |
